Patent US8178548B2, “Anti-infective agents and uses thereof” (priority 2007, dated 2012)
Like-named read-outs stand apart in the source and are kept apart here.

Legend:
[1] = tested on: genotype 1a-H77 subgenomic replicon cell line; assay: HCV Polymerase Replicon Assay, genotype 1a-H77 (luciferase reporter); format: cell-based; settings: Hepatitis C virus, 72 h, read-out: EC50 1a
[2] = molecular target: T1, HCV polymerase 1A (Δ21 NS5B, H77) (Hepatitis C virus genotype 1a, UniProt P27958); assay: biochemical
T1 construct: 20 to 50 nM Δ21 NS5B
Procedure: (§1) Either two-fold serial dilutions (fractional inhibition assay) or a narrower range of dilutions spanning the IC50 of the inhibitor (tight binding assay) of the inhibitors were incubated with 20 mM Tris-Cl pH 7.4, 2 mM MnCl2, 1 mM dithiothreitol, 1 mM ethylene diamine tetraacetic acid (EDTA), 60 to 125 μM GTP and 20 to 50 nM Δ21 NS5B (HCV Strain 1B (BK, Genbank accession number M58335, or H77, Genbank accession number AF011751)) for 15 min at room temperature. The reaction was initiated by the addition of 20 μM CTP, 20 μM ATP, 1 μM ^3H-UTP (10 mCi/umol), 5 nM template RNA and 0.1 U/μl RNase inhibitor (RNasin, Promega), and allowed to proceed for 2 to 4 h at room temperature. Reaction volume was 50 μl. The reaction was terminated by the addition of 1 volume of 4 mM spermine in 10 mM Tris-Cl pH 8.0, 1 mM EDTA. After incubation for at least 15 min at room temperature, the precipitated RNA was captured by filtering through a GF/B filter (Millipore) in a 96 well format. The filter plate was washed three times with 200 μl each of 2 mM spermine, 10 mM Tris-Cl pH 8.0, 1 mM EDTA, and 2 times with ethanol. After air-drying, 30 μl of Microscint 20 scintillation cocktail (Packard) was added to each well, and the retained cpm were determined by scintillation counting. […] Retained cpm were plotted vs. inhibitor concentration and fit to equation 1 using non-linear regression (ref. 1) to obtain the IC50 values: Retained cpm=A[sqrt{(IC50+It−Et)^2+4*IC50*Et}−(IC50+It−Et)]
(§2) Ref. Morrison, J. F. and S. R. Stone. 1985. Approaches to the study and analysis of the inhibition of enzymes by slow- and tight-binding inhibitors. Comments Mol. Cell. Biophys. 2: 347-368.
(§3) The sequence of the template RNA used was: 5′-[…] […] […] […] […] […] […] […] […] […] […] […] […] […] […] […] […]-3′ (SEQ ID NO:1).

[3] = molecular target: T2, HCV polymerase 1B (Δ21 NS5B, HCV Strain 1B BK) (Hepatitis C virus genotype 1b, UniProt P26663); assay: biochemical
T2 construct: 20 to 50 nM Δ21 NS5B
Procedure: as §1, §2, §3

[4] = tested on: genotype 1b-Con1 subgenomic replicon cell line; assay: HCV Polymerase Replicon Assay, genotype 1b-Con1 (luciferase reporter); format: cell-based; settings: Hepatitis C virus, 72 h, read-out: EC50 1b

T1 sequence (P27958 2421-2990, stated change not applied): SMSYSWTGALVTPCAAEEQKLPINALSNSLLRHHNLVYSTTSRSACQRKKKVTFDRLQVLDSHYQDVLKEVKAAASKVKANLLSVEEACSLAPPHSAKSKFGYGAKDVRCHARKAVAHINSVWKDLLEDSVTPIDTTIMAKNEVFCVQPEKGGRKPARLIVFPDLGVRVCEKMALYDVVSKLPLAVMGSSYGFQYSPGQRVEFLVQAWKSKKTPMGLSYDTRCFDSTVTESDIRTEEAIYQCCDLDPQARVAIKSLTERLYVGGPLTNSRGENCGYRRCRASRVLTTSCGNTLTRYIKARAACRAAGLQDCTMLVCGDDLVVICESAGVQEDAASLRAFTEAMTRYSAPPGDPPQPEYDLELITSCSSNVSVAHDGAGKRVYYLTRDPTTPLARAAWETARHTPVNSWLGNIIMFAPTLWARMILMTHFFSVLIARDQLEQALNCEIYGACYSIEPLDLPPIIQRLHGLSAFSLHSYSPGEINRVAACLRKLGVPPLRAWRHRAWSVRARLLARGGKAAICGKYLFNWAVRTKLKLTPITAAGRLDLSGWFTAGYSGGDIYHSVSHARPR
T2 sequence (P26663 2420-2989, stated change not applied): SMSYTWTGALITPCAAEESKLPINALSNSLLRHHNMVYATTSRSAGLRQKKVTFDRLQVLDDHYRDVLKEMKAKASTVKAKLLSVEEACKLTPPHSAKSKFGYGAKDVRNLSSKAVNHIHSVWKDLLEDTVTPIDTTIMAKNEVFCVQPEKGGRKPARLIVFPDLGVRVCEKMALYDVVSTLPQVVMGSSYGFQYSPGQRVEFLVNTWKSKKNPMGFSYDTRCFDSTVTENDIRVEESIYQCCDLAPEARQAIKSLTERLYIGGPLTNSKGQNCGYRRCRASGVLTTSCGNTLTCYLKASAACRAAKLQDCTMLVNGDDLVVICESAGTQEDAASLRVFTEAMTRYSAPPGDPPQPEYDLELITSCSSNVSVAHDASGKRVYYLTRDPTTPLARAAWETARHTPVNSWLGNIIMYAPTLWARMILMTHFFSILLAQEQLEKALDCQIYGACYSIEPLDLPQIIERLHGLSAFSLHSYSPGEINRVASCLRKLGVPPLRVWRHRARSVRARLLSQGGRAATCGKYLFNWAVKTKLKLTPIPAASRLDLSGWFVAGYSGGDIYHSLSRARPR

SMILES	EC50 [1] [nM]	IC50 [2] [nM]	IC50 [3] [nM]	EC50 [4] [nM]	EC50 ([4]; replicon 1b-Con1, luciferase, three days) [nM]
COc1c(C=C(F)c2ccc(NS(C)(=O)=O)cc2)cc(N2CCC(=O)NC2=O)cc1C(C)(C)C (racemic) [IA-L1-1.21, N-(4-(2-(3-tert-butyl-5-(2,4-dioxotetrahydropyrimidin-1(2H)-yl)-2-methoxyphenyl) 1-fluorovinyl)phenyl)methanesulfonamide]	< 10	10 to 100	10 to 100	< 10	–
COc1c(/C=C(\Cl)c2ccc(NS(C)(=O)=O)cc2)cc(N2CCC(=O)NC2=O)cc1C(C)(C)C [IA-L1-1.3, (Z)-N-(4-(2-(3-tert-butyl-5-(2,4-dioxotetrahydropyrimidin-1(2H)-yl)-2-methoxyphenyl)-1-chlorovinyl)phenyl)methanesulfonamide]	10 to 100	< 10	< 10	< 10	–
COc1c(/C=C(\F)c2ccc(NS(C)(=O)=O)cc2)cc(N2CCC(=O)NC2=O)cc1C(C)(C)C [IA-L1-1.4, (Z)-N-(4-(2-(3-tert-butyl-5-(2,4-dioxotetrahydropyrimidin-1(2H)-yl)-2-methoxyphenyl)-1-fluorovinyl)phenyl)methanesulfonamide]	< 10	< 10	< 10	< 10	–
COc1c(/C=C(/F)c2ccc(NS(C)(=O)=O)cc2)cc(N2CCC(=O)NC2=O)cc1C(C)(C)C [IA-L1-1.5, (E)-N-(4-(2-(3-tert-butyl-5-(2,4-dioxotetrahydropyrimidin-1(2H)-yl)-2-methoxyphenyl)-1-fluorovinyl)phenyl)methanesulfonamide]	10 to 100	< 10	10 to 100	< 10	–
COc1c(/C=C(\C)c2ccc(NS(C)(=O)=O)cc2)cc(N2CCC(=O)NC2=O)cc1C(C)(C)C [IA-L1-1.6, (E)-N-(4-(1-(3-tert-butyl-5-(2,4-dioxotetrahydropyrimidin-1(2H)-yl)-2-methoxyphenyl)prop-1-en-2-yl)phenyl)methanesulfonamide]	10 to 100	< 10	10 to 100	10 to 100	–
COc1c(/C=C/c2ccc(NS(C)(=O)=O)cc2)cc(N2CCC(=O)NC2=O)cc1C(C)(C)C [IA-L1-1.9, (E)-N-(4-(3-tert-butyl-5-(2,4-dioxotetrahydropyrimidin-1(2H)-yl)-2-methoxystyryl)phenyl)methanesulfonamide]	10 to 100	< 10	10 to 100	< 10	–
COc1c(/C=C/c2ccc(N(C(C)=O)S(C)(=O)=O)cc2)cc(N2CCC(=O)NC2=O)cc1C(C)(C)C [IA-L1-1.11, (E)-N-(4-(3-tert-butyl-5-(2,4-dioxotetrahydropyrimidin-1(2H)-yl)-2-methoxystyryl)phenyl)-N-(methylsulfonyl)acetamide]	< 10	10 to 100	10 to 100	< 10	–
COc1c(/C=C/c2ccc(F)cc2)cc(N2CCC(=O)NC2=O)cc1C(C)(C)C [IA-L1-1.12, (E)-1-(3-tert-butyl-5-(4-fluorostyryl)-4-methoxyphenyl) dihydropyrimidine-2,4(1H,3H)-dione]	100 to 1000	100 to 1000	100 to 1000	100 to 1000	–
COc1c(/C=C/c2ccc(N)cc2)cc(N2CCC(=O)NC2=O)cc1C(C)(C)C [IA-L1-1.13, (E)-1-(3-(4-aminostyryl)-5-tert-butyl-4-methoxyphenyl)dihydropyrimidine-2,4(1H,3H)-dione]	> 1000	100 to 1000	100 to 1000	100 to 1000	–
COc1ccc(/C=C/c2cc(N3CCC(=O)NC3=O)cc(C(C)(C)C)c2OC)cc1 [IA-L1-1.14, (E)-1-(3-tert-butyl-4-methoxy-5-(4-methoxystyryl)phenyl)dihydropyrimidine-2,4(1H,3H)-dione]	> 1000	> 1000	> 1000	> 1000	–
CC(C)(C)c1cc(/C=C/c2ccc(NS(C)(=O)=O)cc2)cc(N2CCC(=O)NC2=O)c1 [IA-L1-1.16, (E)-N-(4-(3-tert-butyl-5-(2,4-dioxotetrahydropyrimidin-1(2H)-yl)styryl)phenyl)methanesulfonamide]	10 to 100	< 10	< 10	10 to 100	–
CO/C(=C\c1cc(N2CCC(=O)NC2=O)cc(C(C)(C)C)c1OC)c1ccc(NS(C)(=O)=O)cc1 [IA-L1-1.17, (Z)-N-(4-(2-(3-tert-butyl-5-(2,4-dioxotetrahydropyrimidin-1(2H)-yl)-2-methoxyphenyl)-1-methoxyvinyl)phenyl)methanesulfonamide]	10 to 100	10 to 100	10 to 100	10 to 100	–
COc1c(/C=C/c2ccccc2)cc(N2CCC(=O)NC2=O)cc1C(C)(C)C [IA-L1-1.18, (E)-1-(3-tert-butyl-4-methoxy-5-styrylphenyl)dihydro-pyrimidine-2,4(1H,3H)-dione]	100 to 1000	100 to 1000	100 to 1000	100 to 1000	–
COc1c(/C=C\c2ccc(NS(C)(=O)=O)cc2)cc(N2CCC(=O)NC2=O)cc1C(C)(C)C [IA-L1-1.20, (Z)-N-(4-(3-tert-butyl-5-(2,4-dioxotetrahydropyrimidin-1(2H)-yl)-2-methoxystyryl)phenyl)methanesulfonamide]	10 to 100	–	–	10 to 100	–
COc1c(/C=C/c2ccc([N+](=O)[O-])cc2)cc(N2CCC(=O)NC2=O)cc1C(C)(C)C [IA-L1-1.22, (E)-1-(3-tert-butyl-4-methoxy-5-(4-nitrostyryl)phenyl)dihydropyrimidine-2,4(1H,3H)-dione]	> 1000	100 to 1000	100 to 1000	100 to 1000	–
COc1c(/C=C(\Cl)c2ccc([N+](=O)[O-])cc2)cc(N2CCC(=O)NC2=O)cc1C(C)(C)C [IA-L1-1.23, 1-{3-tert-butyl-5-[(Z)-2-chloro-2-(4-nitro-phenyl)-vinyl]-4-methoxy-phenyl}-dihydropyrimidine-2,4-dione]	> 1000	100 to 1000	100 to 1000	> 1000	–
COc1c(/C=C(\C)c2ccc([N+](=O)[O-])cc2)cc(N2CCC(=O)NC2=O)cc1C(C)(C)C [IA-L1-1.24, 1-{3-tert-butyl-4-methoxy-5-[(E)-2-(4-nitro-phenyl)-propenyl]-phenyl}-dihydro-pyrimidine-2,4-dione]	> 1000	> 1000	> 1000	> 1000	–
CC(C)(C)c1cc(/C=C/c2ccc([N+](=O)[O-])cc2)cc(N2CCC(=O)NC2=O)c1 [IA-L1-1.25, 1-{3-tert-Butyl-5-[(E)-2-(4-nitro-phenyl)-vinyl]-phenyl}-dihydro-pyrimidine-2,4-dione]	–	> 1000	> 1000	–	–
COc1c(/C=C/c2ccc(NS(C)(=O)=O)c(F)c2)cc(N2CCC(=O)NC2=O)cc1C(C)(C)C [IA-L1-1.26, (E)-N-(4-(3-tert-butyl-5-(2,4-dioxotetrahydropyrimidin-1(2H)-yl)-2-methoxystyryl)-2-fluorophenyl)methanesulfonamide]	10 to 100	10 to 100	10 to 100	10 to 100	–
COc1c(/C=C/c2ccc(NS(C)(=O)=O)cc2)cc(-n2cc(F)c(=O)[nH]c2=O)cc1C(C)(C)C [IB-L1-1.2, (E)-N-(4-(3-tert-butyl-5-(5-fluoro-2,4-dioxo-3,4-dihydropyrimidin-1(2H)-yl)-2-methoxystyryl)phenyl)methanesulfonamide]	–	10 to 100	10 to 100	–	10 to 100
COc1c(/C=C/c2ccc(NS(C)(=O)=O)cc2)cc(-n2ccc(=O)[nH]c2=O)cc1-c1cccnc1 [IB-L1-1.53, (E)-N-(4-(5-(2,4-dioxo-3,4-dihydropyrimidin-1(2H)-yl)-2-methoxy-3-(pyridin-3-yl)styryl)phenyl)methanesulfonamide]	–	> 1000	> 1000	–	–
COc1c(/C=C/c2ccc(NS(C)(=O)=O)cc2)cc(-n2ccc(=O)[nH]c2=O)cc1-c1ccncc1 [IB-L1-1.55, (E)-N-(4-(5-(2,4-dioxo-3,4-dihydropyrimidin-1(2H)-yl)-2-methoxy-3-(pyridin-4-yl)styryl)phenyl)methanesulfonamide]	–	> 1000	> 1000	–	–
